Laboratory results as given in patent US20070232601A1, “Vla-4 Inhibitor” (priority 2004, published 2007).

Columns and labels:
[1] = molecular target: T1, hα4 and β1 integrins (VLA-4) (Homo sapiens, UniProt P05556+P13612); assay: In vitro evaluation: inhibition of binding of CHO cells expressing hα4 and β1 integrins to Eu3+-hVCAM-1 D1D7-IgG; conditions: ligand Eu3+-hVCAM-1 D1D7-IgG 2 nM, Ki calculated from IC50
T1 construct: expressed in transfected cells; host or cells: CHO cells
In short: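 CHO cells stably expressing hα4β1 were cultured 2 days, then incubated 1 h at room temperature with Eu3+-hVCAM-1 D1D7-IgG (added as 2 nM solution) and compound in HEPES pH 7.5 with Ca2+, Mg2+ and 4 mM Mn2+, ± 6% human serum albumin. Bound europium was read by time-resolved fluorescence; IC50 was converted to Ki using Scatchard-derived Kd.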

[2] = Dispersibility test in Japanese Pharmacopoeia First and Second Solution; type: physicochemical; conditions: for Dispersibility in Japanese Pharmacopoeia First Solution: JP1, pH 1.2; for Dispersibility in Japanese Pharmacopoeia Second Solution: JP2, pH 6.8
Procedure: Dispersibility of a test substance in Japanese Pharmacopoeia First Solution (JP1, pH 1.2) and Japanese Pharmacopoeia Second Solution (JP2, pH 6.8) was evaluated.

T1 sequence (P13612 34-1032): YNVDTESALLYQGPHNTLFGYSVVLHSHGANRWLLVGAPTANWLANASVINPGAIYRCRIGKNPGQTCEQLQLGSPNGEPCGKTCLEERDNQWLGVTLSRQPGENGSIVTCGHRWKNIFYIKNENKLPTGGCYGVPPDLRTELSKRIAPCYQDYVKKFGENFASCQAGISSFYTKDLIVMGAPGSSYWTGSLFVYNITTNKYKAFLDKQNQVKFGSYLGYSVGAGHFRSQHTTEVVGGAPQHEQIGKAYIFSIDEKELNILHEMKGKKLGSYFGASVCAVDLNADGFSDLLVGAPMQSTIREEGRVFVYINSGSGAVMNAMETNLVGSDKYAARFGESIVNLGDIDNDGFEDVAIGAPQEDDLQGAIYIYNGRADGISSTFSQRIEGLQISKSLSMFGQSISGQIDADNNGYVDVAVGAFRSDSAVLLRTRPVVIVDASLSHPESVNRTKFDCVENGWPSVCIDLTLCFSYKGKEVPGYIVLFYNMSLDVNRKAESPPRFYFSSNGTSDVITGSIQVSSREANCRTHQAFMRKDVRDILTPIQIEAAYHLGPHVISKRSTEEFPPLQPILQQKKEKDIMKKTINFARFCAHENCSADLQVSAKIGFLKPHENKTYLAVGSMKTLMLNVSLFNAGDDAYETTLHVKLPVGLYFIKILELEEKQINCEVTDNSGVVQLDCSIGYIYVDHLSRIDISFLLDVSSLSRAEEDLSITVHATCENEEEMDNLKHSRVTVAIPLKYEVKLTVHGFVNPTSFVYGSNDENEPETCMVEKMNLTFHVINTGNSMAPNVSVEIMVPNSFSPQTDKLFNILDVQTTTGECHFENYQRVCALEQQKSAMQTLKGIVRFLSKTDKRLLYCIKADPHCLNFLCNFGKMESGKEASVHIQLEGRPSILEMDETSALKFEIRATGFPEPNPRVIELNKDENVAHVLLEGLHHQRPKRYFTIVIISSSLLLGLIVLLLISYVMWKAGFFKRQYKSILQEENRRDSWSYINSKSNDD
T1 sequence (P05556 21-798): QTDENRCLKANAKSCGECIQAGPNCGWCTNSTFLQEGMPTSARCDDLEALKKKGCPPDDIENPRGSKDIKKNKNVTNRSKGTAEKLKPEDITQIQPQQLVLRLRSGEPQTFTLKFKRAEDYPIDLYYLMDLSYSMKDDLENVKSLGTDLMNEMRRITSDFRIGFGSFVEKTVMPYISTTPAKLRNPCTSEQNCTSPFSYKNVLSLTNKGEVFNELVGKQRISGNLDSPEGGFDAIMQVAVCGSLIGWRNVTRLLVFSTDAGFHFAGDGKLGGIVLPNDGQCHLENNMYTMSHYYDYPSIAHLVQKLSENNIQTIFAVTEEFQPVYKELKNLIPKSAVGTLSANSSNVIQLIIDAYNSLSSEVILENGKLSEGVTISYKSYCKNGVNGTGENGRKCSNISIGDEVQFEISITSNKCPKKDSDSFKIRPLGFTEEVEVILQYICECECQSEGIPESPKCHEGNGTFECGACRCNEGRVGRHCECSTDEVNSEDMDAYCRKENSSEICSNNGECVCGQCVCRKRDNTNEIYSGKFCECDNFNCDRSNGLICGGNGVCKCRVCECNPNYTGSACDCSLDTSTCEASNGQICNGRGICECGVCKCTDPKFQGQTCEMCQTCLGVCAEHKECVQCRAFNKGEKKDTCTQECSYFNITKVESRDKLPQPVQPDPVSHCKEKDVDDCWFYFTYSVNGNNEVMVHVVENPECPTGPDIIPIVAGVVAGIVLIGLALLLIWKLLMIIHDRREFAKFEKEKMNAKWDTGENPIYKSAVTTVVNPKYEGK

Compound: O=C(O)CCc1cnc([C@@H]2C[C@H](N3CCN(CC(F)(F)F)CC3)CN2C(=O)Cc2cc(Cl)c(NC(=O)c3csc4ccccc34)cc2Cl)s1 [Example 82]
- Ki [1]: 1.3 nM
- Dispersibility in Japanese Pharmacopoeia First Solution [2]: 96 µg/mL
- Dispersibility in Japanese Pharmacopoeia Second Solution [2]: 320 µg/mL

Compound: CCOC1CN([C@H]2C[C@@H](c3ncc(CCC(=O)O)s3)N(C(=O)Cc3cc(Cl)c(NC(=O)c4csc5ccccc45)cc3F)C2)C1 [Example 71, 3-[2-[1-[4-(3-Benzo[b]thiophenylcarbonylamino)-5-chloro-2-fluorophenylacetyl]-(4S)-1-(3-ethoxy)azetidinyl-(2S)-pyrrolidinyl]-5-thiazolyl]propionic acid]
- Ki [1]: 0.5 nM
- Dispersibility in Japanese Pharmacopoeia First Solution [2]: 940 µg/mL
- Dispersibility in Japanese Pharmacopoeia Second Solution [2]: 940 µg/mL

Compound: O=C(O)CCc1cnc([C@@H]2[C@@H](O)CCN2C(=O)Cc2cc(Cl)c(Nc3nc4ccccc4s3)cc2Cl)s1 [Example 121, 3-[2-[1-[4-(2-Benzothiazolyl)amino-2,5-dichlorophenyl]acetyl-(3S)-hydroxy-(2S)-pyrrolidinyl]-5-thiazolyl]propionic acid]
- Ki [1]: 8.5 nM
- Dispersibility in Japanese Pharmacopoeia First Solution [2]: 160 µg/mL
- Dispersibility in Japanese Pharmacopoeia Second Solution [2]: 780 µg/mL

Compound: COc1ccccc1Nc1nc2ccc(CC(=O)N3C[C@@H](OC)C[C@H]3c3ncc(CCC(=O)O)s3)c(F)c2o1 [Example 10, 3-[2-[1-[[7-Fluoro-2-(2-methoxyphenylamino)-1,3-benzoxazol-6-yl]acetyl]-(4S)-methoxy-(2S)-pyrrolidinyl]-5-thiazolyl]propionic acid]
- Ki [1]: 0.56 nM
- Dispersibility in Japanese Pharmacopoeia First Solution [2]: 1700 µg/mL
- Dispersibility in Japanese Pharmacopoeia Second Solution [2]: 2000 µg/mL

Compound: C[C@@H]1CN([C@H]2C[C@@H](c3ncc(CCC(=O)O)s3)N(C(=O)Cc3cc(Cl)c(NC(=O)c4csc5ccccc45)cc3Cl)C2)C[C@H](C)O1 [Example 88, 3-[2-[1-[4-(3-Benzo[b]thiophenylcarbonylamino)-2,5-dichlorophenylacetyl]-(4S)-[4-(cis-2,6-dimethyl)morpholinyl]-(2S)-pyrrolidinyl]-5-thiazolyl]propionic acid]
- Ki [1]: 1.2 nM
- Dispersibility in Japanese Pharmacopoeia First Solution [2]: 1200 µg/mL
- Dispersibility in Japanese Pharmacopoeia Second Solution [2]: 1400 µg/mL

Compound: O=C(O)CCc1cnc([C@@H]2C[C@H](Oc3cccnc3)CN2C(=O)Cc2cc(Cl)c(NC(=O)c3csc4ccccc34)cc2F)s1 [Example 45, 3-[2-[1-[4-[(3-Benzo[b]thienylcarbonyl)amino]-5-chloro-2-fluorophenylacetyl]-(4S)-(3-pyridyloxy)-(2S)-pyrrolidinyl]-5-thiazolyl]propionic acid]
- Ki [1]: 1.6 nM
- Dispersibility in Japanese Pharmacopoeia First Solution [2]: 2000 µg/mL
- Dispersibility in Japanese Pharmacopoeia Second Solution [2]: 200 µg/mL

Compound: C[C@@H]1CN([C@H]2C[C@@H](c3ncc(CCC(=O)O)s3)N(C(=O)Cc3cc(Cl)c(NC(=O)c4csc5ccccc45)cc3F)C2)C[C@H](C)O1 [Example 87, 3-[2-[1-[4-(3-Benzo[b]thiophenylcarbonylamino)-5-chloro-2-fluorophenylacetyl]-(4S)-[4-(cis-2,6-dimethyl)morpholinyl]-(2S)-pyrrolidinyl]-5-thiazolyl]propionic acid]
- Ki [1]: 1 nM
- Dispersibility in Japanese Pharmacopoeia First Solution [2]: 1200 µg/mL
- Dispersibility in Japanese Pharmacopoeia Second Solution [2]: 1300 µg/mL

Compound: Cn1cc(C(=O)Nc2cc(Cl)c(CC(=O)N3C[C@@H](N4CCC(F)(F)CC4)C[C@H]3c3ncc(CCC(=O)O)s3)cc2Cl)c2ccccc21 [Example 74, 3-[2-[1-[2,5-Dichloro-4-(1-methyl-3-indolylcarbonylamino)phenylacetyl]-(4S)-[1-(4,4-difluoro)piperidinyl]-(2S)-pyrrolidinyl]-5-thiazolyl]propionic acid]
- Ki [1]: 1.2 nM
- Dispersibility in Japanese Pharmacopoeia First Solution [2]: 130 µg/mL
- Dispersibility in Japanese Pharmacopoeia Second Solution [2]: 150 µg/mL

Compound: O=C(O)CCc1cnc([C@@H]2C[C@H](N3CCN(CC(F)(F)F)CC3)CN2C(=O)Cc2cc(Cl)c(NC(=O)c3coc4ccccc34)cc2Cl)s1 [Example 84]
- Ki [1]: 1.5 nM
- Dispersibility in Japanese Pharmacopoeia First Solution [2]: 280 µg/mL
- Dispersibility in Japanese Pharmacopoeia Second Solution [2]: 760 µg/mL

Compound: O=C(O)CCc1cnc([C@@H]2C[C@H](N3CCN(CC(F)(F)F)CC3)CN2C(=O)Cc2cc(Cl)c(NC(=O)c3coc4ccccc34)cc2F)s1 [Example 83]
- Ki [1]: 1.6 nM
- Dispersibility in Japanese Pharmacopoeia First Solution [2]: 540 µg/mL
- Dispersibility in Japanese Pharmacopoeia Second Solution [2]: 1000 µg/mL

Compound: COC1CN([C@H]2C[C@@H](c3ncc(CCC(=O)O)s3)N(C(=O)Cc3cc(Cl)c(NC(=O)c4coc5ccccc45)cc3Cl)C2)C1 [Example 68, 3-[2-[[1-4-(3-Benzo[b]furanylcarbonylamino)-2,5-dichlorophenylacetyl]-(4S)-[1-(3-methoxy)azetidinyl]-(2S)-pyrrolidinyl]-5-thiazolyl]propionic acid]
- Ki [1]: 0.73 nM
- Dispersibility in Japanese Pharmacopoeia First Solution [2]: 1000 µg/mL
- Dispersibility in Japanese Pharmacopoeia Second Solution [2]: 1000 µg/mL

Compound: CO[C@H]1C[C@@H](c2ncc(CCC(=O)O)s2)N(C(=O)Cc2cc(Cl)c(Nc3nc4ccccc4s3)cc2F)C1 [Example 111, 3-[2-[1-[4-(2-Benzothiazolyl)amino-5-chloro-2-fluorophenyl]acetyl-(4S)-methoxy-(2S)-pyrrolidinyl]-5-thiazolyl]propionic acid]
- Ki [1]: 3.3 nM
- Dispersibility in Japanese Pharmacopoeia First Solution [2]: 570 µg/mL
- Dispersibility in Japanese Pharmacopoeia Second Solution [2]: 750 µg/mL

Compound: COC1CN([C@H]2C[C@@H](c3ncc(CCC(=O)O)s3)N(C(=O)Cc3cc(Cl)c(NC(=O)c4csc5ccccc45)cc3F)C2)C1 [Example 65, 3-[2-[1-[4-(3-Benzo[b]thiophenylcarbonylamino)-5-chloro-2-fluorophenylacetyl]-(4S)-[1-(3-methoxy)azetidinyl]-(2S)-pyrrolidinyl]-5-thiazolyl]propionic acid]
- Ki [1]: 0.93 nM
- Dispersibility in Japanese Pharmacopoeia First Solution [2]: 1000 µg/mL
- Dispersibility in Japanese Pharmacopoeia Second Solution [2]: 1000 µg/mL

Compound: C[C@@H]1CN([C@H]2C[C@@H](c3ncc(CCC(=O)O)s3)N(C(=O)Cc3cc(Cl)c(NC(=O)c4cn(C)c5ccccc45)cc3F)C2)C[C@H](C)O1 [Example 85, 3-[2-[1-[5-Chloro-2-fluoro-4-(1-methyl-3-indolylcarbonylamino)phenylacetyl]-(4S)-[4-(cis-2,6-dimethyl)morpholinyl]-(2S)-pyrrolidinyl]-5-thiazolyl]propionic acid]
- Ki [1]: 1 nM
- Dispersibility in Japanese Pharmacopoeia First Solution [2]: 1200 µg/mL
- Dispersibility in Japanese Pharmacopoeia Second Solution [2]: 1300 µg/mL

Compound: CO[C@H]1C[C@@H](c2ncc(CCC(=O)O)s2)N(C(=O)Cc2cc(Cl)c(Nc3nc4ccccc4o3)cc2Cl)C1 [Example 109, 3-[2-[1-[4-(2-Benzoxazolyl)amino-2,5-dichlorophenyl)acetyl-(4S)-methoxy-(2S)-pyrrolidinyl]-5-thiazolyl]propionic acid]
- Ki [1]: 6.3 nM
- Dispersibility in Japanese Pharmacopoeia First Solution [2]: 480 µg/mL
- Dispersibility in Japanese Pharmacopoeia Second Solution [2]: 750 µg/mL

Compound: O=C(O)CCc1cnc([C@@H]2C[C@H](N3CCN(CC(F)(F)F)CC3)CN2C(=O)Cc2cc(Cl)c(NC(=O)c3csc4ccccc34)cc2F)s1 [Example 81, 3-[2-[1-[4-(3-Benzo[b]thiophenylcarbonylamino)-5-chloro-2-fluorophenylacetyl]-(4S)-[1-(4-(2,2,2-trifluoro)ethyl)piperazinyl]-(2S)-pyrrolidinyl]-5-thiazolyl]propionic acid]
- Ki [1]: 1.3 nM
- Dispersibility in Japanese Pharmacopoeia First Solution [2]: 210 µg/mL
- Dispersibility in Japanese Pharmacopoeia Second Solution [2]: 680 µg/mL

Compound: CO[C@H]1C[C@@H](c2ncc(CCC(=O)O)s2)N(C(=O)Cc2ccc(Nc3nc4ccccc4o3)c(Cl)c2)C1 [Example 107, 3-[2-[1-[4-(2-Benzoxazolyl)amino-3-chlorophenyl]acetyl-(4S)-methoxy-(2S)-pyrrolidinyl]-5-thiazolyl]propionic acid]
- Ki [1]: 9.2 nM
- Dispersibility in Japanese Pharmacopoeia First Solution [2]: 700 µg/mL
- Dispersibility in Japanese Pharmacopoeia Second Solution [2]: 700 µg/mL

Compound: CCOC1CN([C@H]2C[C@@H](c3ncc(CCC(=O)O)s3)N(C(=O)Cc3cc(Cl)c(NC(=O)c4cn(C)c5ccccc45)cc3Cl)C2)C1 [Example 70, 3-[2-[1-[2,5-Dichloro-4-(1-methyl-3-indolylcarbonylamino)phenylacetyl]-(4S)-[1-(3-ethoxy)azetidinyl]-(2S)-pyrrolidinyl]-5-thiazolyl]propionic acid]
- Ki [1]: 2.3 nM
- Dispersibility in Japanese Pharmacopoeia First Solution [2]: 960 µg/mL
- Dispersibility in Japanese Pharmacopoeia Second Solution [2]: 960 µg/mL

Compound: Cn1cc(C(=O)Nc2cc(Cl)c(CC(=O)N3C[C@@H](N4CCN(CC(F)(F)F)CC4)C[C@H]3c3ncc(CCC(=O)O)s3)cc2Cl)c2ccccc21 [Example 80, 3-[2-[1-[2,5-Dichloro-4-(1-methyl-3-indolylcarbonylamino)phenylacetyl]-(4S)-[1-(4-(2,2,2-trifluoro)ethyl)piperazinyl]-(2S)-pyrrolidinyl]-5-thiazolyl]propionic acid]
- Ki [1]: 2 nM
- Dispersibility in Japanese Pharmacopoeia First Solution [2]: 110 µg/mL
- Dispersibility in Japanese Pharmacopoeia Second Solution [2]: 730 µg/mL

Compound: COC1CN([C@H]2C[C@@H](c3ncc(CCC(=O)O)s3)N(C(=O)Cc3cc(Cl)c(NC(=O)c4coc5ccccc45)cc3F)C2)C1 [Example 67, 3-[2-[1-[4-(3-Benzo[b]furanylcarbonylamino)-5-chloro-2-fluorophenylacetyl]-(4S)-[1-(3-methoxy)azetidinyl]-(2S)-pyrrolidinyl]-5-thiazolyl]propionic acid]
- Ki [1]: 1.2 nM
- Dispersibility in Japanese Pharmacopoeia First Solution [2]: 1000 µg/mL
- Dispersibility in Japanese Pharmacopoeia Second Solution [2]: 1000 µg/mL
